Publication PMC5085761 (International Journal of Molecular Sciences, 2016)

What was measured:
[1] = biological target: T1, OCT2 (Homo sapiens, UniProt O15244); experiment: Inhibition of tracer uptake in OCT2-expressing cells; format: in vitro ADME; conditions: OCT2, tracer [14C]metformin 10 µM
T1 construct: host or cells: HEK293
T1 sequence (O15244 1-555): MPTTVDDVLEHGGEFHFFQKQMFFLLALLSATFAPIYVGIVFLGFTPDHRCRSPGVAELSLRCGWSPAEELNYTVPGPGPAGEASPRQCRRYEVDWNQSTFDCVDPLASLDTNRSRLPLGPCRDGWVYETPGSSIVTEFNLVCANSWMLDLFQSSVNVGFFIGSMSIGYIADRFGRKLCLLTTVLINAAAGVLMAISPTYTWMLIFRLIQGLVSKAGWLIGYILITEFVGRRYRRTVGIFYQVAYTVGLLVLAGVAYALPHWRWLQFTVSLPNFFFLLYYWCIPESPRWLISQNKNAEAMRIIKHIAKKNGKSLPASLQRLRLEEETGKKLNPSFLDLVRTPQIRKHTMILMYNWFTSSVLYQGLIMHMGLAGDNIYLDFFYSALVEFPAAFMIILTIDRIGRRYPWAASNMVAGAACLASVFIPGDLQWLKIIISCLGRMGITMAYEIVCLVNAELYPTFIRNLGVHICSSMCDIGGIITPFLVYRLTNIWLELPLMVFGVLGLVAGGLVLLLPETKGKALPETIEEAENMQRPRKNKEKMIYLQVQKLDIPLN

[2] = biological target: T2, human MRP4 (Homo sapiens, UniProt O15439); experiment: [14C]fluciclovine uptake by MRP4-expressing inside-out vesicles; format: in vitro ADME
T2 construct: purchased GenoMembrane Co., Ltd. (Kanagawa, Japan); host or cells: Sf9
T2 sequence (O15439 1-1325): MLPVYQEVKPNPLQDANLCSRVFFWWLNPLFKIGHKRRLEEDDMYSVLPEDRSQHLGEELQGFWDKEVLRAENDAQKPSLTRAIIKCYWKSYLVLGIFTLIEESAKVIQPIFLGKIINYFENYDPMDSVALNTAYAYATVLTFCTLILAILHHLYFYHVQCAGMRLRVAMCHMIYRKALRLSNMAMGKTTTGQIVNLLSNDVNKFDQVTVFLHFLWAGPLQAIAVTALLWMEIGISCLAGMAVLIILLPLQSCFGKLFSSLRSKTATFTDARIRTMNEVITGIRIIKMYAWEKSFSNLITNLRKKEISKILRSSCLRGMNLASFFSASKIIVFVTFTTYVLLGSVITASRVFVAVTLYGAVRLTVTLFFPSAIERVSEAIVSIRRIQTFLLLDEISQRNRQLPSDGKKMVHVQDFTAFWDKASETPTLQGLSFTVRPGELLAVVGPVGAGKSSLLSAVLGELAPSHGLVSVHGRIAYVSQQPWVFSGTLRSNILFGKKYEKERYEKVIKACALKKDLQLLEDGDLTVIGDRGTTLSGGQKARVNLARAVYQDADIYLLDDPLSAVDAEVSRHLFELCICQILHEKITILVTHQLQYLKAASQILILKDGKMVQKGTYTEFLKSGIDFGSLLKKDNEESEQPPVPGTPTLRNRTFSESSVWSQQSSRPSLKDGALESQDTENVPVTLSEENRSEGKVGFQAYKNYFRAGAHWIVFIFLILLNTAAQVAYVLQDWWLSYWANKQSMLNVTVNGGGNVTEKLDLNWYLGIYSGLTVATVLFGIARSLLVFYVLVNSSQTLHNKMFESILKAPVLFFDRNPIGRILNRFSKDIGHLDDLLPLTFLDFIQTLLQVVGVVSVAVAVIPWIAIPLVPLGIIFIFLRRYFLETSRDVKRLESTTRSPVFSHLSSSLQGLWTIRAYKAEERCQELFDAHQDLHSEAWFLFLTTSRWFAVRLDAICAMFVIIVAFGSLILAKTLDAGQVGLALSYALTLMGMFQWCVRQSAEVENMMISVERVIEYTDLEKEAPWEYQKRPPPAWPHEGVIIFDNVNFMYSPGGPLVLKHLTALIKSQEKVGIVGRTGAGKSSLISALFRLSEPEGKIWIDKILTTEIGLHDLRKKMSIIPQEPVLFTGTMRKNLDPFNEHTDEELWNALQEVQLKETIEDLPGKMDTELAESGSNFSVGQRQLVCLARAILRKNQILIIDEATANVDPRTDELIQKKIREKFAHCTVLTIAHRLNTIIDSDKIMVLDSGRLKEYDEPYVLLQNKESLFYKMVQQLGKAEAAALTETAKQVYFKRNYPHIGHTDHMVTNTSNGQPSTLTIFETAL
Procedure: For ABC transporters, experimental kits containing Sf9-derived vesicles with high expression levels of human P-gp, MRP4, BCRP, and each ABC transporter (including buffer, ATP/AMP solution, and glutathione) were purchased from GenoMembrane Co., Ltd. (Kanagawa, Japan).
Vesicular transport assays were carried out according to the manufacturer’s protocol. […] The reaction was started by suspending 50 μg of vesicles (10 μL) in 40 μL of the reaction buffer. After incubation for an appropriate period of time, the reaction was stopped by the addition of ice-cold stop buffer (40 mM MOPS-Tris and 70 mM KCl; pH 7.0), after which the solution was filtered through a 0.45 μm HA filter (Millipore Corp., Billerica, MA, USA) using suction, and was washed twice in 5 mL of ice-cold stop buffer. The radioactivity of the filter was measured with a Tri-Carb 2910TR liquid scintillation counter (PerkinElmer) using Ultima Gold (PerkinElmer). The amount of tracer uptake was normalized to the membrane protein amount described in the product information sheets.

IC50 [1] [mM]	SMILES	uptake compared with control vesicles [2]
8.95 ± 1.96	N[C@]1(C(=O)O)C[C@@H](F)C1 [fluciclovine]	–
–	N[14C]1(C(=O)O)CC(F)C1 (stereo not drawn) [[^14C]fluciclovine, trans-1-amino-3-fluoro[1-^14C]cyclobutanecarboxylic acid]	no significant difference
